From publication PMC10518717, “High-Throughput Screening and Proteomic Characterization of Compounds Targeting Myeloid-Derived Suppressor Cells” (Molecular & Cellular Proteomics : MCP, 2023)

Experiments:
A594 cells = assay: CellROX-based detection of ROS levels; assay type: cell-based; settings: 48 h treatment (compound 2 7.8 μM, N-acetyl-cysteine 300 μM), then 200 μM tert-butyl hydroperoxide 2 h; compared to compound 3 10 μM
Description: A594 cells were maintained in Fluorobrite DMEM (Thermo Fisher Scientific) supplemented with GlutaMAX (Thermo Fisher Scientific) and 10% fetal bovine serum (PAN Biotech). Cells were seeded onto a 24-well microplate (Ibidi) and treated with DMSO, 7.8 μM compound 2 (3x EC50), 10 μM compound 3, or 300 μM N-acetyl-cysteine for 48 h. After the treatment, cells were incubated with 200 μM tert-butyl hydroperoxide (Sigma) for 2 h to stimulate ROS production. Then, cells were stained with CellROX deep red (Thermo Fisher Scientific) following the manufacturer’s guidelines. CellROX deep red signal was measured on a Leica DMI 6000 B epifluorescent microscope with a Cy5 filter set. Mean signal intensity per cell was determined from >100 cells per condition from three independent treatments.
For the CellROX assay, three independent treatments were conducted. From each, the mean signal intensity per cell was determined for >100 cells per condition. The statistical significance was calculated by one-way ANOVA followed by a post hoc Tukey’s multiple comparisons test using GraphPad Prism (v.8.3.0).

Acyp1 = molecular target: T1, Acyp1 (Mus musculus, UniProt P56376); assay: Solvent-induced protein precipitation profiling; assay type: binding; settings: 7.8 μM and 26 μM; relative to compound 3 at 10 μM
T1 construct: We treated NUP-MDSC cell lysate with compound 2; endogenous in cells; host or cells: mouse NUP-MDSC (lysate)
T1 sequence (P56376 1-99): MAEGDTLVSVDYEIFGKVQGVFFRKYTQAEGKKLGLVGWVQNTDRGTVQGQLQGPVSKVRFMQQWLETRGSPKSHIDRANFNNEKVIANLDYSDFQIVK
Description: (§1) NUP-MDSCs were differentiated as described above, washed twice with PBS, resuspended in lysis buffer (PBS, 0.4% IGEPAL CA-630, 1× Halt Protease-Inhibitor Cocktail (Thermo Fisher Scientific)), and subjected to three freeze-thaw cycles. The lysate was cleared by centrifugation for 30 min at 18,000g and 4 °C. The soluble fraction was diluted to 4 mg/ml and allowed to warm up to room temperature. Equal volumes of lysate were treated in triplicates with 100 x compound stock solutions (in DMSO) or DMSO for 15 min at room temperature (final concentrations: cmpd 2: 7.8 μM (3xEC50) and 26 μM (10xEC50), cmpd 3: 10 μM and 26 μM). […]
(§2) Peptides were analyzed via LC-MS/MS on a Vanquish Neo UHPLC coupled to an Orbitrap Eclipse Tribrid mass spectrometer (Thermo Fisher Scientific). […] Samples were measured, employing a MS3 method with real-time search. […] To obtain quantitative information on TMT reporter ions, each peptide precursor was fragmented again as for MS2 analysis followed by synchronous selection of the up to 10 most intense peptide fragments in the iontrap ([37]) and further fragmentation via HCD using an NCE of 55%. […] The MS3 scan was recorded in the OT at 30,000 resolution (scan range 110–500 m/z, isolation window of 0.7 m/z, AGC of 2e4 charges, maxIT of 120 ms). […]

Cd74 = molecular target: T2, Cd74 (Mus musculus, UniProt P04441); assay: Solvent-induced protein precipitation profiling; assay type: binding; settings: 7.8 μM and 26 μM; relative to compound 3 at 10 μM
T2 construct: We treated NUP-MDSC cell lysate with compound 2; endogenous in cells; host or cells: mouse NUP-MDSC (lysate)
T2 sequence (P04441 1-279): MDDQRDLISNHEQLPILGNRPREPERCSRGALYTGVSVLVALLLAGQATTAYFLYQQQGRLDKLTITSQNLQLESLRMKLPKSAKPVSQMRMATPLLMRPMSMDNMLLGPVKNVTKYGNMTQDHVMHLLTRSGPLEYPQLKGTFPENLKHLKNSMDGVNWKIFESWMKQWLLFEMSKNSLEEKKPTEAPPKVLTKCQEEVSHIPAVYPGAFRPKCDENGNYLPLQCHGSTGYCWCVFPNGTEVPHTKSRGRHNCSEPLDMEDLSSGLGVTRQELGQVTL
Description: as §1, §2

stabilization against solvent-induced aggregation of Acyp1 (Acyp1): dose-dependent stabilization | stabilization against solvent-induced aggregation of Cd74 (Cd74): dose-dependent stabilization
Compound: CCOC(=O)c1nnn(-c2nn3nnnc3c3ccccc23)c1C [compound 2]
CellROX Deep Red fluorescence (amount of ROS in a cell) (A594 cells): decreased significantly
